This note sets out measurements from patent US20260241028A1, “METAL-BASED ANTIBODY-DRUG CONJUGATES AND METHODS OF MAKING AND USING THEREOF” (Laboratory for Synthetic Chemistry and Chemical Biology …, priority 2024, published 2026).

Read-outs that look alike come from different tables or passages of the source.

Assay [1] relates to HEK293. The experiment in a line: In vitro anti-proliferative activity (NBB assay), HEK293. It counts as cell-based, human. The conditions noted are these: Table 1; 72 h; read-out: IC50 HEK293 kidney. On the procedure: (§1) Cells (4×10^3 cells/well) were seeded in a microtiter plate (96 wells) and incubated overnight before the treatment. […] After the media was removed, the cells were fixed with formaldehyde (3%; 50 μL) in PBS and stained with NBB reagent (0.05%, 0.1 M sodium acetate, 9% acetic acid; 50 μL) for overnight. The stained cells in each well were washed thrice gently with deionized water and solubilized in sodium hydroxide solution (50 mM; 100 μL). The cell viability was determined by measuring the absorbance of 620 nm in each well by microplate reader. The experiments were repeated in triplicate.

The test system of assay [2] is SKBR3. The experiment in a line: In vitro anti-proliferative activity (NBB assay), SKBR3. It counts as cell-based. To be noted: 72 h. On the procedure: as §1
Assay [3] has as its system NCI-H460. The assay can be described thus: In vitro anti-proliferative activity (NBB assay), NCI-H460. It counts as cell-based. To be noted: Table 1; 72 h; read-out: IC50 NCI-H460 lung. On the procedure: as §1
The test system of assay [4] is HCC827. The assay can be described thus: In vitro anti-proliferative activity (NBB assay), HCC827. It counts as cell-based, human. To be noted: 72 h. On the procedure:
as §1

Assay [5] relates to MDA-MB-231. The experiment in a line: In vitro anti-proliferative activity (NBB assay), MDA-MB-231. It counts as cell-based. To be noted: Table 1; 72 h; read-out: IC50 MDA-MB-231 breast. On the procedure:
as §1

The subject of assay [6] is HT29. The assay can be described thus: In vitro anti-proliferative activity (NBB assay), HT29. It counts as cell-based. The conditions noted are these: Table 1; 72 h; read-out: IC50 HT29 colon. How it is done:
as §1

The test system of assay [7] is PANC1. The experiment in a line: In vitro anti-proliferative activity (NBB assay), PANC1. To be noted: Table 1; 72 h; read-out: IC50 PANC1 pancreas. It counts as cell-based. On the procedure: as §1
For assay [8], the system named is BxPC3. The assay can be described thus: In vitro anti-proliferative activity (NBB assay), BxPC3. It counts as cell-based, human. The conditions noted are these: 72 h. How it is done:
as §1

Assay [9] deals with MHCC97L. The assay can be described thus: In vitro anti-proliferative activity (NBB assay), MHCC97L. It counts as cell-based. To be noted: Table 1; 72 h; read-out: IC50 MHCC97L liver. How it is done: as §1
In assay [10] the test system is NCI-N87. The experiment in a line: In vitro anti-proliferative activity (NBB assay), NCI-N87. It counts as cell-based. The conditions noted are these: Table 1; 72 h; read-out: IC50 NCI-N87 gastric. On the procedure:
as §1

Assay [11] has as its system HCT116. The experiment in a line: In vitro anti-proliferative activity (NBB assay), HCT116. It counts as cell-based. To be noted: Table 1; 72 h; read-out: IC50 HCT116 colon. On the procedure:
as §1

In assay [12] the test system is SW1990. The experiment in a line: In vitro anti-proliferative activity (NBB assay), SW1990. It counts as cell-based, human. To be noted: 72 h. How it is done:
as §1

In assay [13] the test system is A549. The assay can be described thus: In vitro anti-proliferative activity (NBB assay), A549. It counts as cell-based. The conditions noted are these: Table 1; 72 h; read-out: IC50 A549 lung. On the procedure:
as §1

For assay [14], the system named is SKOV3. The assay can be described thus: In vitro anti-proliferative activity (NBB assay), SKOV3. It counts as cell-based. To be noted: Table 1; 72 h; read-out: IC50 SKOV3 ovarian. How it is done: as §1
Assay [15] concerns panel of cell lines. The experiment in a line: NBB assay, summary over the panel of cell lines. It counts as cell-based. How it is done: as §1
For assay [16], the system named is Calu3. The experiment in a line: In vitro anti-proliferative activity (NBB assay), Calu3. It counts as cell-based, human. The conditions noted are these: 72 h. On the procedure: as §1
The subject of assay [17] is TROP2-overexpressed cancer cells (HCC827, Calu3, BxPC3, SW1990, SKBR3). The assay can be described thus: NBB assay, summary over TROP2-overexpressed cancer cells. It counts as cell-based. The conditions noted are these: all the cells of Table 2. On the procedure:
as §1

Assay [18] concerns TROP2-overexpressed cancer cells (HCC827, Calu3, BxPC3, SW1990). The assay can be described thus: Flow cytometric binding study, TROP2-overexpressed cells. It counts as cell-based, human. To be noted: flow cytometry, 4° C., 1 h. How it is done: Cells (2×10^5 cells/tube) were suspended in FACS staining buffer (2% FBS in PBS) into a 1.5 mL eppendorf tube. They were incubated with Sacituzumab, ADC-Au or IgG control respectively in staining buffer (100 μL) at 4° C. After 1 h, the cell suspensions were centrifuged at 1500 rpm for 3 min at 4° C. and washed with staining buffer (1 mL) twice to discard unbound antibodies. The cells were then incubated with Alexa Fluor 594 goat anti-human secondary antibody at 4° C. for 1 h and then subject to centrifugation. The cells were washed twice again and were resuspended in staining buffer. The mean fluorescence intensities (MFI) were measured using Beckman Cytoflex S Flow Cytometer.

Where [19] appears, read: Table 1, read-out: IC50 SKBR3 breast.
[20] abbreviates: Table 1, read-out: IC50 HCC827 lung.
The mark [21] stands for this setting: Table 1, read-out: IC50 BxPC3 pancreas.
[22] abbreviates: Table 1, read-out: IC50 SW1990 pancreas.
[23] abbreviates: Table 1, read-out: IC50 Calu3 lung.

Regarding `O=C(O)c1ccc(C2=c3ccc4[n]3[Au-]35[n]6c(ccc6C(c6ccccc6)=C6C=CC2=[N+]63)C(c2ccccc2)=C2C=CC(=[N+]25)C=4c2ccccc2)cc1.[Cl-]` (centres unmarked) [AuCOOH], the IC50 in assay [1] worked out at 650 nM; in [2] (setting [19]), 270 nM; in [3], 420 nM; in assay [4] (setting [20]), 1770 nM; in assay [5], 710 nM; in [6], 640 nM. For the same molecule, the IC50 in assay [7] came to 2430 nM; in assay [8] (setting [21]) it was 840 nM; in [9], 2650 nM; in assay [10], 1310 nM; in [11] it was 710 nM; in [12] (setting [22]), 2190 nM. The concentration for half-maximal inhibition (IC50) in assay [13] was 690 nM; in [14] it was 2890 nM; in [16] (setting [23]) it was 1760 nM. The “cytotoxicity / potency compared with the other gold complexes” value in assay [15] is listed as “lowest cytotoxicity”.
As for `C1=CC2=[N+]3C1=C(c1ccccc1)c1ccc4[n]1[Au-]31[n]3c(ccc3=C(c3ccccc3)C3=[N+]1C(=C4c1ccccc1)C=C3)=C2c1ccccc1.Cl` [AuTPP, gold (III) tetraphenylporphyrin, reference compound], the IC50 in [1] amounted to 130 nM; in assay [2] (setting [19]), 80 nM; in assay [3], 120 nM; in [4] (setting [20]), 140 nM; in assay [5], 180 nM; in assay [6] it was 120 nM. The IC50 in [7] was found to be 100 nM; in assay [8] (setting [21]), 80 nM; in [9] it was 150 nM; in assay [10], 100 nM; in assay [11], 150 nM; in assay [12] (setting [22]), 170 nM. Moreover, the IC50 was determined as 90 nM in [13], 90 nM in assay [14] and 290 nM in assay [16] (setting [23]).
For the molecule “Sacituzumab: TROP2-targeted monoclonal antibody (MCE)”, the IC50 in assay [2] (Table 2, Example 1 (Sacituzumab ADC), read-out: IC50 SKBR3) was over 2000 nM; in assay [4] (Table 2, Example 1 (Sacituzumab ADC), read-out: IC50 HCC827) it was over 2000 nM; in [8] (Table 2, Example 1 (Sacituzumab ADC), read-out: IC50 BxPC3), over 2000 nM; in assay [12] (Table 2, Example 1 (Sacituzumab ADC), read-out: IC50 SW1990), over 2000 nM; in assay [16] (Table 2, Example 1 (Sacituzumab ADC), read-out: IC50 Calu3) it was over 2000 nM. The cell growth inhibition result in assay [17] was “not obvious”. The “specific binding to TROP2-overexpressed cancer cells” value in assay [18] was “significant specific-binding”.
